These results are taken from article PMC7248956, “Discovery of Novel Imidazopyridine GSK-3β Inhibitors Supported by Computational Approaches” (Molecules, 2020).

Structures are written as SMILES. Like-named read-outs stand apart in the source and are kept apart here.

For test [1], the target named is T1, GSK-3β (Homo sapiens, UniProt P49841). Nature of the test: in vitro GSK-3β inhibition assay. The class given is biochemical. To be noted: IMID 1 and IMID 2 derivatives 7–18; average of duplicate wells. The procedure:
Driven by the promising results, compounds 7–18 were synthesized as reported in Chemistry Section 2.1. Their biological activity was determined using an in vitro GSK-3β assay described elsewhere. […] In vitro MDCK-MDR1 permeability of IMID 1 and IMID 2 derivatives was also experimentally assessed (Table 1). […] In this respect, a decrease of TPSA was observed moving from INDZ 6 to the corresponding analogues 12 (IMID 1) and 18 (IMID 2), and from 3 to 15. The SAR analysis highlighted the detrimental impact of the positively charged piperidine ring of 2-8-14 triplet and derivative 13 on CNS permeability. […] When the piperidine was replaced with an oxanyl ring, while keeping the isopropoxypyridinyl group on the other side (2 vs. 4 and 8 vs. 10), a low CNS penetration was still observed, indicating a coexisting unfavorable contribution (high TPSA) of the R2 moiety to permeability. The comparison of the 4–10 pyridinyl derivatives with the corresponding 6–12 di-F-phenyl molecules confirmed an ameliorated BBB permeability when lipophilicity raises.

The target in test [2] is T1, GSK-3β. Also on record: method as in PMID 26486317, PMID 32435391. Conditions: cited from earlier work.

T1 sequence (P49841 whole entry): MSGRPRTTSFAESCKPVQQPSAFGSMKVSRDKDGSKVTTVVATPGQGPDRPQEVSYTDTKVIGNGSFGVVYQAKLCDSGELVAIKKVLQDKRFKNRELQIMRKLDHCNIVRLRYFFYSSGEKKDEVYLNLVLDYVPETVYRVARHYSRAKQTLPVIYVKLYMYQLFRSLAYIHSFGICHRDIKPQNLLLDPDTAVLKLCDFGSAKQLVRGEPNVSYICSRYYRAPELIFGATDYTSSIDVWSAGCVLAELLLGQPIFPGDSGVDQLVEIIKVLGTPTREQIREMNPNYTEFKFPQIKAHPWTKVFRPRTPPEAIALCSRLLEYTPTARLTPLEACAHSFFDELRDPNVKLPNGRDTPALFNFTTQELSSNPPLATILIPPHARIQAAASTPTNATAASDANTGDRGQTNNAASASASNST

One may read the IC50 as the concentration needed to halve the response being measured. On GSK-3β [1], `O=C(NCC1CCOCC1)c1ncc2ccc(-c3cccnc3)cn12` [Compound 15, 6-(Pyridin-3-yl)-N-((tetrahydro-2H-pyran-4-yl)methyl)imidazo[1,5-a]pyridine-3-carboxamide] had an IC50 of 91 nM. Same read-out and setting: the same measure for `CC(C)Oc1cncc(-c2ccc3cnc(C(=O)NCC4CCOCC4)n3c2)c1` [Compound 16, 6-(5-Isopropoxypyridin-3-yl)-N-((tetrahydro-2H-pyran-4-yl)methyl)imidazo[1,5-a]pyridine-3-carboxamide]: 72 nM; for `O=C(NCC1CCOCC1)c1ncc2ccc(-c3cnccc3CO)cn12` [Compound 17, 6-(4-(Hydroxymethyl)pyridin-3-yl)-N-((tetrahydro-2H-pyran-4-yl)methyl)imidazo[1,5-a]pyridine-3-carboxamide]: 910 nM. Turning to `COCCN1CCC(CNC(=O)c2n[nH]c3ccc(-c4cncc(OC(C)C)c4)cc23)CC1` [Compound 2], the IC50 at GSK-3β [2] (INDZ derivatives 1–6, published ahead) is 9 nM; on GSK-3β [2] (INDZ derivatives), 4 nM. At GSK-3β [1], `COCCN1CCC(CNC(=O)c2ncn3ccc(-c4cccnc4)cc23)CC1` [Compound 7, N-((1-(2-Methoxyethyl)piperidin-4-yl)methyl)-7-(pyridin-3-yl)imidazo[1,5-a]pyridine-1-carboxamide] gave an IC50 of 410 nM. On the same count and under the same terms, to `O=C(NCC1CCOCC1)c1ncn2ccc(-c3cnccc3CO)cc12` [Compound 11, 7-(4-(Hydroxymethyl)pyridin-3-yl)-N-((tetrahydro-2H-pyran-4-yl)methyl)imidazo [1,5-a]pyridine-1-carboxamide] belongs 1400 nM; to `COCCN1CCC(CNC(=O)c2ncn3ccc(-c4cncc(OC(C)C)c4)cc23)CC1` [Compound 8, 7-(5-Isopropoxypyridin-3-yl)-N-((1-(2-methoxyethyl)piperidin-4-yl)methyl)imidazo[1,5-a]pyridine-1-carboxamide], 120 nM; to `CC(C)Oc1cncc(-c2ccn3cnc(C(=O)NCC4CCOCC4)c3c2)c1` [Compound 10, 7-(5-Isopropoxypyridin-3-yl)-N-((tetrahydro-2H-pyran-4-yl)methyl)imidazo[1,5-a]pyridine-1-carboxamide], 200 nM.

`O=C(NCC1CCOCC1)c1ncn2ccc(-c3cccnc3)cc12` [Compound 9, 7-(Pyridin-3-yl)-N-((tetrahydro-2H-pyran-4-yl)methyl)imidazo[1,5-a]pyridine-1-carboxamide] had a half-maximal inhibitory concentration (IC50) at GSK-3β [1] of 180 nM. At GSK-3β [1], `COCCN1CCC(CNC(=O)c2ncc3ccc(-c4cncc(OC(C)C)c4)cn23)CC1` [Compound 14, 6-(5-Isopropoxypyridin-3-yl)-N-((1-(2-methoxyethyl)piperidin-4-yl)methyl)imidazo[1,5-a]pyridine-3-carboxamide] displayed a concentration for half-maximal inhibition (IC50) of 230 nM.

On GSK-3β [1], `COCCN1CCC(CNC(=O)c2ncc3ccc(-c4cccnc4)cn23)CC1` [Compound 13, N-((1-(2-Methoxyethyl)piperidin-4-yl)methyl)-6-(pyridin-3-yl)imidazo[1,5-a]pyridine-3-carboxamide] came in with an IC50 of 370 nM.

In turn, `O=C(NCC1CCOCC1)c1ncn2ccc(-c3cccc(F)c3F)cc12` [Compound 12, 7-(2,3-Difluorophenyl)-N-((tetrahydro-2H-pyran-4-yl)methyl)imidazo[1,5-a]pyridine-1-carboxamide] returned an IC50 against GSK-3β [1] of 280 nM. The same measure, in the same setting: the same measure for `O=C(NCC1CCOCC1)c1ncc2ccc(-c3cccc(F)c3F)cn12` [Compound 18, 6-(2,3-Difluorophenyl)-N-((tetrahydro-2H-pyran-4-yl)methyl)imidazo[1,5-a]pyridine-3-carboxamide]: 240 nM.
